Results from PubChem BioAssay (NCI).
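Briefly, cells in 96-well plates were exposed to five compound concentrations for 48 h, and endpoints were estimated by linear interpolation. TGI is the concentration that stops growth completely.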

Assays:
Experiment in all cases: NCI tumour cell line growth inhibition, 48 h
A498 renal = system: A498 renal
A549 NSCLC = system: A549 NSCLC
CCRF-CEM leukemia = system: CCRF-CEM leukemia
COLO 205 colon = system: COLO 205 colon
DLD-1 colon = system: DLD-1 colon
DMS 114 small cell lung = system: DMS 114 small cell lung
DMS 273 small cell lung = system: DMS 273 small cell lung
EKVX NSCLC = system: EKVX NSCLC
HCC-2998 colon = system: HCC-2998 colon
HCT-116 colon = system: HCT-116 colon
HCT-15 colon = system: HCT-15 colon
HL-60(TB) leukemia = system: HL-60(TB) leukemia
HOP-18 NSCLC = system: HOP-18 NSCLC
HOP-62 NSCLC = system: HOP-62 NSCLC
HT29 colon = system: HT29 colon
IGROV1 ovarian = system: IGROV1 ovarian
K-562 leukemia = system: K-562 leukemia
KM12 colon = system: KM12 colon
KM20L2 colon = system: KM20L2 colon
LOX IMVI melanoma = system: LOX IMVI melanoma
M19-MEL melanoma = system: M19-MEL melanoma
MALME-3M melanoma = system: MALME-3M melanoma
MCF7 breast = system: MCF7 breast
MOLT-4 leukemia = system: MOLT-4 leukemia
NCI-H226 lung = system: NCI-H226 lung
NCI-H23 lung = system: NCI-H23 lung
NCI-H460 lung = system: NCI-H460 lung
NCI-H522 lung = system: NCI-H522 lung
NCI/ADR-RES ovarian = system: NCI/ADR-RES ovarian
OVCAR-3 ovarian = system: OVCAR-3 ovarian
OVCAR-4 ovarian = system: OVCAR-4 ovarian
OVCAR-5 ovarian = system: OVCAR-5 ovarian
OVCAR-8 ovarian = system: OVCAR-8 ovarian
P388 leukemia = system: P388 leukemia
P388/ADR leukemia = system: P388/ADR leukemia
RPMI-8226 leukemia = system: RPMI-8226 leukemia
RXF 393 renal = system: RXF 393 renal
SF-268 CNS = system: SF-268 CNS
SF-295 CNS = system: SF-295 CNS
SF-539 CNS = system: SF-539 CNS
SK-MEL-2 melanoma = system: SK-MEL-2 melanoma
SK-MEL-28 melanoma = system: SK-MEL-28 melanoma
SK-MEL-5 melanoma = system: SK-MEL-5 melanoma
SK-OV-3 ovarian = system: SK-OV-3 ovarian
SN12C renal = system: SN12C renal
SN12K1 renal = system: SN12K1 renal
SNB-19 CNS = system: SNB-19 CNS
SNB-75 CNS = system: SNB-75 CNS
SW-620 colon = system: SW-620 colon
U251 CNS = system: U251 CNS
UACC-257 melanoma = system: UACC-257 melanoma
UACC-62 melanoma = system: UACC-62 melanoma
UO-31 renal = system: UO-31 renal
XF 498 CNS = system: XF 498 CNS
HOP-92 NSCLC = system: HOP-92 NSCLC
SNB-78 CNS = system: SNB-78 CNS

Compound `CSc1nc(SC)c2cnn(CC3CO3)c2n1` (stereo not given) has a TGI (A498 renal) of over 100 µM, a TGI (A549 NSCLC) of 64.8 µM and a TGI (CCRF-CEM leukemia) of 70.5 µM. The TGI (COLO 205 colon) was 35.5 µM, the TGI (DLD-1 colon) was 53.9 µM and the TGI (DMS 114 small cell lung) was 32.6 µM. For the same compound, the TGI (DMS 273 small cell lung) was over 54.6 µM, the TGI (EKVX NSCLC) was over 75.4 µM and the TGI (HCC-2998 colon) was 31.3 µM. For the same compound, the TGI (HCT-116 colon) was 31.9 µM, the TGI (HCT-15 colon) was over 61.4 µM and the TGI (HL-60(TB) leukemia) was 45.4 µM. The TGI (HOP-18 NSCLC) was over 100 µM, the TGI (HOP-62 NSCLC) was 41.2 µM and the TGI (HT29 colon) was 47.1 µM. It also gave a TGI (IGROV1 ovarian) of 38.1 µM, a TGI (K-562 leukemia) of over 100 µM and a TGI (KM12 colon) of 39.2 µM. For the same compound, the TGI (KM20L2 colon) was 43.4 µM, the TGI (LOX IMVI melanoma) was 19.8 µM and the TGI (M19-MEL melanoma) was 27.1 µM. The TGI (MALME-3M melanoma) was 45.2 µM, the TGI (MCF7 breast) was 25.7 µM and the TGI (MOLT-4 leukemia) was 7.73 µM. The TGI (NCI-H226 lung) was 38.7 µM, the TGI (NCI-H23 lung) was 34.6 µM and the TGI (NCI-H460 lung) was 40.8 µM. For the same compound, the TGI (NCI-H522 lung) was 77.3 µM, the TGI (NCI/ADR-RES ovarian) was 36.3 µM and the TGI (OVCAR-3 ovarian) was over 65.1 µM. For the same compound, the TGI (OVCAR-4 ovarian) was 44.2 µM, the TGI (OVCAR-5 ovarian) was 41.3 µM and the TGI (OVCAR-8 ovarian) was 15.8 µM. For the same compound, the TGI (P388 leukemia) was over 54.5 µM, the TGI (P388/ADR leukemia) was over 57 µM and the TGI (RPMI-8226 leukemia) was over 100 µM. For the same compound, the TGI (RXF 393 renal) was 34 µM, the TGI (SF-268 CNS) was 33.9 µM and the TGI (SF-295 CNS) was 55.4 µM. For the same compound, the TGI (SF-539 CNS) was 38.5 µM, the TGI (SK-MEL-2 melanoma) was 31.7 µM and the TGI (SK-MEL-28 melanoma) was 18.6 µM. For the same compound, the TGI (SK-MEL-5 melanoma) was 17.8 µM, the TGI (SK-OV-3 ovarian) was over 100 µM and the TGI (SN12C renal) was over 50.1 µM. The TGI (SN12K1 renal) was 21.6 µM, the TGI (SNB-19 CNS) was over 100 µM and the TGI (SNB-75 CNS) was 44.7 µM. It also gave a TGI (SW-620 colon) of over 44.7 µM, a TGI (U251 CNS) of 45.4 µM and a TGI (UACC-257 melanoma) of 37.4 µM. For the same compound, the TGI (UACC-62 melanoma) was 33.5 µM, the TGI (UO-31 renal) was 45 µM and the TGI (XF 498 CNS) was 45.4 µM.

With `COC(=O)C(C/C=C(\C)c1ccccc1)C(C)=O` (stereo not given) the TGI (A498 renal) was over 100 µM, the TGI (A549 NSCLC) was over 100 µM and the TGI (CCRF-CEM leukemia) was over 100 µM. The TGI (COLO 205 colon) was over 100 µM, the TGI (DLD-1 colon) was over 100 µM and the TGI (DMS 114 small cell lung) was over 95.9 µM. The TGI (DMS 273 small cell lung) was over 100 µM, the TGI (EKVX NSCLC) was over 100 µM and the TGI (HCC-2998 colon) was over 100 µM. It also gave a TGI (HCT-116 colon) of over 100 µM, a TGI (HCT-15 colon) of over 100 µM and a TGI (HL-60(TB) leukemia) of 53.6 µM. It also gave a TGI (HOP-18 NSCLC) of over 100 µM, a TGI (HOP-62 NSCLC) of over 100 µM and a TGI (HOP-92 NSCLC) of 98.3 µM. The TGI (HT29 colon) was over 100 µM, the TGI (IGROV1 ovarian) was over 100 µM and the TGI (K-562 leukemia) was over 100 µM. It also gave a TGI (KM12 colon) of over 100 µM, a TGI (KM20L2 colon) of over 100 µM and a TGI (LOX IMVI melanoma) of over 100 µM. For the same compound, the TGI (M19-MEL melanoma) was over 100 µM, the TGI (MALME-3M melanoma) was over 100 µM and the TGI (MCF7 breast) was over 100 µM. For the same compound, the TGI (MOLT-4 leukemia) was 51.6 µM, the TGI (NCI-H226 lung) was over 100 µM and the TGI (NCI-H23 lung) was over 100 µM. For the same compound, the TGI (NCI-H460 lung) was over 100 µM, the TGI (NCI-H522 lung) was over 100 µM and the TGI (NCI/ADR-RES ovarian) was over 100 µM. It also gave a TGI (OVCAR-3 ovarian) of over 100 µM, a TGI (OVCAR-4 ovarian) of over 100 µM and a TGI (OVCAR-5 ovarian) of over 100 µM. For the same compound, the TGI (OVCAR-8 ovarian) was over 100 µM, the TGI (P388 leukemia) was over 82.1 µM and the TGI (P388/ADR leukemia) was over 100 µM. The TGI (RPMI-8226 leukemia) was over 100 µM, the TGI (RXF 393 renal) was over 100 µM and the TGI (SF-268 CNS) was over 100 µM. For the same compound, the TGI (SF-295 CNS) was over 100 µM, the TGI (SF-539 CNS) was over 100 µM and the TGI (SK-MEL-2 melanoma) was over 100 µM. It also gave a TGI (SK-MEL-28 melanoma) of over 100 µM, a TGI (SK-MEL-5 melanoma) of over 100 µM and a TGI (SK-OV-3 ovarian) of over 100 µM. It also gave a TGI (SN12C renal) of over 100 µM, a TGI (SN12K1 renal) of over 82.8 µM and a TGI (SNB-19 CNS) of over 100 µM. It also gave a TGI (SNB-75 CNS) of over 100 µM, a TGI (SNB-78 CNS) of over 100 µM and a TGI (SW-620 colon) of over 100 µM. It also gave a TGI (U251 CNS) of over 100 µM, a TGI (UACC-257 melanoma) of over 87.4 µM and a TGI (UACC-62 melanoma) of over 100 µM. For the same compound, the TGI (UO-31 renal) was over 100 µM and the TGI (XF 498 CNS) was over 100 µM.
